Assay results as given in patent publication US5008291A, “Method and composition for achieving chemotherapeutic activity” (Ohio State University Research Foundation, priority 1989, dated 1991).
Entries after “also recorded” stand apart in the source; their conditions may differ.

Columns and labels:
beta-glucuronidase = conditions: cells, blood, urine, intestine (and liver); cited from earlier work
sex hormones = conditions: CGT diet; anti-promotional effect; cited from earlier work
Progesterone Receptors = experiment: Progesterone receptors of established DMBA-induced mammary tumors; type: in vivo, female Sprague Dawley rats; conditions: N 7
Procedure: (§1) Estrogen and progesterone receptors were measured in the OSU Hormone Receptor Laboratory by the multipoint dextran-coated charcoal method as previously described in Schuller et al., Estrogen and progesterone receptors in head and neck cancer, Arch. […] The data of specific binding were analyzed by Scatchard, The Attraction of proteins for small molecules and ions, Ann. N.Y. Acad. Sci. 51:660-672 (1949), plots to determine the equilibrium dissociation constant (Kd) and binding capacity expressed as femtomoles of estradiol or progesterone (R-5020) specifically bound per mg of cytosol protein for estrogen and progesterone receptors respectively. Cytosol protein concentrations were determined by the procedure of Lowry et al., Protein measurement with the folin phenol reagent, J. Biol. Chem. 193:265-275 (1951).

Estrogen Receptors = experiment: Estrogen receptors of established DMBA-induced mammary tumors; type: in vivo, female Sprague Dawley rats; conditions: N 7
Procedure: as §1

[1] = CGT-supplemented diet; cited from earlier work
[2] = as calcium glucarate; cited from earlier work
[3] = test system: 7,12-dimethylbenz(a)anthracene-induced mammary tumorigenesis; conditions: cited from earlier work
[4] = test system: DMBA-induced mammary tumors; experiment: DMBA-induced mammary tumor formation (chemoprevention), Example I; type: in vivo, female Sprague Dawley rats; conditions: for No. of Rats with Tumors / Total No. Tumors: 20 rats
Procedure: They were maintained on the diets for approximately 4 mos., and were examined (palpated) for mammary tumors weekly. […] The retinoid (HPR) was first dissolved in 25 ml of a vehicle consisting of ethanol-tricaprylin-6% α-tocopherol, then thoroughly mixed with powdered rat chow.

[5] = test system: established DMBA-induced mammary tumors; experiment: Growth of established DMBA-induced rat mammary tumors, Example II; type: in vivo, female Sprague Dawley rats; conditions: for increase of tumor size / decrease of mammary tumor size: 25 days; for increase of tumor size: controls 98%; for tumor growth: diets supplemented with low ineffective doses; for effect on tumor growth/development when fed separately: low (ineffective) dosages fed separately
Procedure: Louis, Mo.) in 1.0 ml of sesame oil, Abou-Issa et al., Proc. Natl. Acad. Sci. U.S.A., supra. […] Tumor sizes were measured in all the rats just before placing them on the following experimental diets (Groups I-VI): (I) rat chow (RMH 3200, Pro Lab, Syracuse, N.Y.); […] Natl. Acad. Sci. U.S.A., supra. The latter vehicle was added to the diet of all six groups. The additives were blended into the diet with a mechanical mixer. All the tumors that developed within the time frame of this example are histologically adenocarcinomas. This finding has been previously reported by Huggins et al., Mammary cancer induced by a single feeding of polynuclear hydrocarbons, and its suppression, Nature, 185:204-207 (1961), in this animal model under the same conditions, and has been confirmed in several indentical experiments. At later time periods beyond the time frame of this example fibroadenomas usually develop, Welsch et al., In "Cellular and Molecular Biology of Mammary Cancer", ([…] and E. Anderson, eds.) Plenum Press, N.Y. 1987, pp 163-179. Tumor measurements were began at the time the rats were placed on the experimental diets and were continued twice weekly throughout the duration of the experiment. Two axes were measured - the longest axis (L) and the axis at right angles to the longest (W), using a vernier caliper. […] Weights of the rats on the control and experimental diets were recorded weekly.

chemical carcinogenesis = conditions: sustained release dietary form; liver, lung, skin, mammary gland; cited from earlier work
[6] = Body weight of rats, Example II; type: in vivo, female Sprague Dawley rats; conditions: for Final Weight: end of experiment; for Initial Weight: just before treatment
Procedure: Rat mammary tumors were induced by treating one hundred 50 day old female Sprague Dawley rats (Harlan Industries, Indianapolis, Ind.) by gavage with a single dose of 15 mg of 7,12-dimethylbenz(a)anthracene (Sigma Chemical Co., St. Louis, Mo.) in 1.0 ml of sesame oil, Abou-Issa et al., Proc. Natl. Acad. Sci. U.S.A., supra. The rats were maintained on a chow diet ad libitum until the tumors had formed in 70% of the rats and had reached a size of approximately 2.0 cm in diameter; 4 months later at which time they were randomized into six groups of 10 rats each. […] The latter vehicle was added to the diet of all six groups. The additives were blended into the diet with a mechanical mixer.
Tumor regression is indicated by at least 20% reduction in tumor size and each tumor is compared to its initial size on day zero. Weights of the rats on the control and experimental diets were recorded weekly.

[7] = Body weight gain of rats, Example I (FIG. 4); type: in vivo, female Sprague Dawley rats; conditions: prolonged feeding of diets containing CGT and HPR
MCF-7 cells = experiment: Growth of MCF-7 cells (GL, HPR, GL and HPR), Table II; type: cell-based, human; conditions: 5 days; for No. of viable cells: mean ± SE of three experiments
From the text: The values shown are the mean +/- ISE for three experiments counted in triplicates. The numbers in parenthesis indicate the number of free floating (mostly non viable) cells in the media.

[8] = test system: established mammary tumors; experiment: HPR on established mammary tumors in CD8 F1 mice; type: in vivo; conditions: CD8 F1 mice with established mammary tumors
[9] = test system: established DMBA-induced mammary tumors; experiment: HPR on already established DMBA-induced mammary tumors; type: in vivo, female Sprague Dawley rats
Procedure: When higher doses (2 mmol/kg diet) of HPR were used, growth arrest was followed within 5 to 10 days by 30% regression of the DMBA-induced mammary tumors. Also, HPR (0.1 uM) inhibited the […] growth of the human breast cancer cell line (MCF-7) to 50% of the control within 7 days.

[10] = rat, in vivo; cited from earlier work

In the case of “2,4-di-O-acetyl-D-glucaro-1,4-lactone [reference compound]”, the inhibition of beta-glucuronidase (beta-glucuronidase) is listed as “effective as inhibitors of beta-glucuronidase”.
For `O=C([O-])[C@@H](O)[C@@H](O)[C@H](O)[C@@H](O)C(=O)[O-].[Ca+2]` [CGT, calcium glucarate], the “steady-state level of sex hormones” value (sex hormones) is given as “reduction in the steady-state level of sex hormones”, the “Progesterone Receptors” value (Progesterone Receptors; CGT (2%)) is given as 84.4 +/- 17.0 Fmoles/mg Protein and the “Progesterone Receptors” value (Progesterone Receptors; CGT (4%)) is given as 82.0 +/- 16.0 Fmoles/mg Protein. For the same compound, the “Estrogen Receptors” value (Estrogen Receptors; CGT (2%)) was 42.7 +/- 7.0 Fmoles/mg Protein, the “Estrogen Receptors” value (Estrogen Receptors; CGT (4%)) was 44.3 +/- 5.9 Fmoles/mg Protein and the “food quantity and weight gain” value [1] was “identical to those on the normal chow diet”. For the same compound, the “dietary dosage that is non-toxic” value [2] was “up to 10 % in the diet”, the “tumor induction relative to controls” value ([3]; 4% CGT diet from two weeks after carcinogen, by 28 weeks) was 30 % of that in the controls and the regression of tumors ([3]; chow diet supplemented with CGT, some tumors) was “underwent regression”. The “Tumor Incidence” value ([4]; 1% CGT in diet) was 55, the “Tumors Per Rat” value ([4]; 1% CGT in diet) was 1.0 and the “No. of Rats with Tumors” value ([4]; 1% CGT in diet) was 11. For the same compound, the “Total No. Tumors” value ([4]; 1% CGT in diet) was 20, the “Tumor Incidence” value ([4]; 2% CGT in diet) was 55 and the “Tumors Per Rat” value ([4]; 2% CGT in diet) was 1.0. For the same compound, the “No. of Rats with Tumors” value ([4]; 2% CGT in diet) was 11, the “Total No. Tumors” value ([4]; 2% CGT in diet) was 20 and the “Tumor Incidence” value ([4]; 4% CGT in diet) was 35. The “Tumors Per Rat” value ([4]; 4% CGT in diet) was 0.5, the “No. of Rats with Tumors” value ([4]; 4% CGT in diet) was 7 and the “Total No. Tumors” value ([4]; 4% CGT in diet) was 10. The “inhibition of tumor incidence” value ([4]; CGT (4%)) was 50-60%, the inhibition of tumors/rat ([4]; CGT (4%)) was 50-65% and the “minimum dosage used alone consistent with maximum inhibition of carcinogenesis” value ([4]; CGT alone, 4 gm/100 gm of chow diet) was about 4 gm %. The “increase of tumor size” value ([5]; CGT 64 mmol/kg) was 55%, the “decrease of mammary tumor size” value ([5]; CGT 128 mmol/kg) was 25% and the tumor growth [5] was “continued to grow”. For the same compound, the “effect on tumor growth/development when fed separately” value [5] was “enhanced tumor growth; also recorded: no observable inhibitory effect and indeed enhanced tumor development”, the chemopreventive activity (chemical carcinogenesis) was “potent chemopreventative agent” and the “Final Weight” value ([6]; CGT (2%)) was 415 +/- 15 gm. For the same compound, the “Initial Weight” value ([6]; CGT (2%)) was 401 +/- 10 gm, the “Final Weight” value ([6]; CGT (4%)) was 429 +/- 26 gm and the “Initial Weight” value ([6]; CGT (4%)) was 404 +/- 22 gm. For the same compound, the “effect on weight gain” value [7] was “did not affect weight gain” and the inhibition of beta-glucuronidase (beta-glucuronidase) was “effective as inhibitors of beta-glucuronidase”.
For `O=C(O)[C@@H](O)[C@H]1OC(=O)[C@H](O)[C@H]1O` [GL, D-glucaro-1,4-lactone], the “free floating (mostly non viable) cells, % of control” value (MCF-7 cells; GL (10^-3 M)) was 7 % of control, the “number of free floating (mostly non viable) cells” value (MCF-7 cells; GL (10^-3 M)) was 4560 and the “No. of viable cells” value (MCF-7 cells; GL (10^-3 M)) was 32560 ± 1800. For the same compound, the “free floating (mostly non viable) cells, % of control” value (MCF-7 cells; GL (10^-4 M)) was 6 % of control, the “number of free floating (mostly non viable) cells” value (MCF-7 cells; GL (10^-4 M)) was 3440 and the “No. of viable cells” value (MCF-7 cells; GL (10^-4 M)) was 49480 + 3160. For the same compound, the inhibition of beta-glucuronidase (beta-glucuronidase) was “potent inhibitor of beta-glucuronidase”.
For `CC1=C(/C=C/C(C)=C/C=C/C(C)=C/C(=O)Nc2ccc(O)cc2)C(C)(C)CCC1` [HPR, N-(4-hydroxyphenyl) retinamide], the “free floating (mostly non viable) cells, % of control” value (MCF-7 cells; HPR (5 × 10^-8 M)) was 7 % of control, the “number of free floating (mostly non viable) cells” value (MCF-7 cells; HPR (5 × 10^-8 M)) was 4160 and the “No. of viable cells” value (MCF-7 cells; HPR (5 × 10^-8 M)) was 33680 ± 2627. The “inhibition of tumor growth” value [8] was 50%, the “Progesterone Receptors” value (Progesterone Receptors; HPR (0.75 mmol/kg)) was 90.7 +/- 18.0 Fmoles/mg Protein and the “Progesterone Receptors” value (Progesterone Receptors; HPR (2.0 mmol/kg)) was 89.3 +/- 13.7 Fmoles/mg Protein. For the same compound, the “inhibition of tumor growth” value ([9]; 1.0 mmol/kg diet daily, within 10 days) was 80-90%, the tumor growth ([9]; 2 mmol/kg diet) was “growth arrest” and the “regression of DMBA-induced mammary tumors” value ([9]; 2 mmol/kg diet, within 5 to 10 days after growth arrest) was 30%. For the same compound, the “Estrogen Receptors” value (Estrogen Receptors; HPR (2.0 mmol/kg)) was 50.6 +/- 8.4 Fmoles/mg Protein, the tissue trophism [10] was “displays trophism for the mammary gland” and the “Tumor Incidence” value ([4]; 0.75 mmol/kg diet HPR) was 60. For the same compound, the “Tumors Per Rat” value ([4]; 0.75 mmol/kg diet HPR) was 1.0, the “No. of Rats with Tumors” value ([4]; 0.75 mmol/kg diet HPR) was 12 and the “Total No. Tumors” value ([4]; 0.75 mmol/kg diet HPR) was 20. The “inhibition of tumor incidence” value ([4]; HPR (1.5 mmol)) was 50-60%, the inhibition of tumors/rat ([4]; HPR (1.5 mmol)) was 50-65% and the “minimum dosage used alone consistent with maximum inhibition of carcinogenesis” value ([4]; HPR alone, in diet) was 1.0 to 1.5 mmol/kg. For the same compound, the “increase of tumor size” value ([5]; HPR 0.75 mmol/kg) was 70%, the “decrease of mammary tumor size” value ([5]; HPR 2 mmol/kg) was 15% and the tumor growth [5] was “continued to grow”. The “effect on tumor growth/development when fed separately” value [5] was “no observable inhibitory effect and indeed enhanced tumor development”, the “Final Weight” value ([6]; HPR (0.75 mmol/kg)) was 421 +/- 14 gm and the “Initial Weight” value ([6]; HPR (0.75 mmol/kg)) was 409 +/- 18 gm. For the same compound, the “Final Weight” value ([6]; HPR (2.0 mmol/kg)) was 413 +/- 10 gm, the “Initial Weight” value ([6]; HPR (2.0 mmol/kg)) was 401 +/- 13 gm and the “effect on weight gain” value [7] was “did not affect weight gain”.
For `O=C(O)[C@@H](O)[C@@H](O)[C@H](O)[C@@H](O)C(=O)[O-].[K+]` [potassium hydrogen glucarate, reference compound], the inhibition of beta-glucuronidase (beta-glucuronidase) is given as “effective as inhibitors of beta-glucuronidase”.
